The test system of the experiment is Male Wistar rats. Description: Excretion of radiolabeled triolein and tripalmitin in rats fed test diets. Type of experiment: in vivo, rat. As to the method: As noted above, saturated fat is deemed to be complexed if at least about 5% of the available saturated fat is complexed. The amount of fat that is complexed is determined by conducting excretion studies as detailed below, and determining the amount of fat that is excreted as compared to a control sample not containing complexed fat. While some of the complexed fat may dissociate in the body, the excretion study will identify the minimum percentage of fat that is complexed.
• 13. Centrifuge the isolated aqueous layer from 11 above at 5000×g for 10 min. • 14. Filter 1 ml of the centrifuged sample supernatant with 0.45 micrometer nylon filter. Inject on to HPLC molecular sizing column. Quantify total cyclodextrin relative to a response factor developed from a standard curve of pure cyclodextrin. • 15. For Pure Fat Samples Only: Weigh remainder of supernatant sample into tared flask. Evaporate moisture to dryness. Record weight of solids. (note: net weight for non-salt containing fat samples will represent free alpha-cyclodextrin) • 16. Subtract free alpha-cyclodextrin amounts determined in 8 above from values determined in steps 15 and 16. Value equals total bound alpha-cyclodextrin. Experimental Design Male Wistar rats, 125-150 g in initial weight, 10 per group, were fed one of four diets. The diets were modifications of the AIN-93G diet [Reeves, PG (1997) Components of the AIN-93 Diets as Improvements in the AIN-76A Diet, J. Nutr. 127:838 S-841S], and thus was a purified diet. All diets were modified to contain 15% fat by weight, wherein the fat comprised 50% ^14C-triolein, an unsaturated fat that is a triglyceride of oleic acid, and 50% ^3H-tripalmitin, a saturated fat that is a triglyceride of palmitic acid. The diets were as follows:
Note that Diet 3 comprised the AIN-93G diet containing 5% α-cyclodextrin (replacing cellulose), which was added in the free unhydrated form as provided by the manufacturer (unhydrated ACD contains approximately 10% w/w moisture). Diet 4 comprised the AIN-93G diet containing 5% hydrated α-cyclodextrin (replacing cellulose), mixed with the radiolabeled fat prior to incorporation into the diet.
The animals were fed their respective diets for 7 days. A two day fecal fat collection was made during days 6 and 7 to allow for a conventional fecal fat determination (i.e. fat extraction with acidified chloroform:methanol). The animals were then fasted overnight, and presented with a 4 g meal of their respective diets containing ^14C-triolein and ^3H-tripalmitin incorporated into the diet. A fecal collection was begun four hours later, and continued until the animals were taken. Twelve hours later, the rats were killed and the small and large intestinal tracts removed. Contents of the stomach, small intestine, cecum, and colon as well as the small intestinal mucosa were collected and freeze-dried. […] After solubilization, the solution was neutralized with glacial acetic acid (to eliminate chemiluminescence), scintillation cocktail added, and the vials counted in a liquid scintillation counter using a dual label counting algorithm.
In this study, excretion is defined as all radiolabel present in the cecal contents, colon contents, and feces. Excretion is calculated in this manner as there is no absorption of triacylglycerols in the large intestine; thus, any radiolabel present in the cecal or colon contents cannot be absorbed and is thus destined to be excreted. […]

The mark [1] stands for this setting: 5% in AIN-93G diet with 15% fat, fed 7 days, then 4 g radiolabeled meal, FIG. 1.

“Also recorded” adds a separate entry of the source.

Turning to `OC[C@H]1O[C@@H]2O[C@H]3[C@H](O)[C@@H](O)[C@@H](O[C@H]4[C@H](O)[C@@H](O)[C@@H](O[C@H]5[C@H](O)[C@@H](O)[C@@H](O[C@H]6[C@H](O)[C@@H](O)[C@@H](O[C@H]7[C@H](O)[C@@H](O)[C@@H](O[C@H]1[C@H](O)[C@H]2O)O[C@@H]7CO)O[C@@H]6CO)O[C@@H]5CO)O[C@@H]4CO)O[C@@H]3CO` [α-cyclodextrin, alpha-cyclodextrin], under setting [1], the “triolein excretion (radiolabel in cecal contents, colon contents and feces)” value is given as “no or only a modest effect”; the “tripalmitin excretion (radiolabel in cecal contents, colon contents and feces)” value is on record as “dramatically increased; also recorded: dramatic effect”. Under “5% in AIN-93G diet with 15% fat, fed 7 days, then 4 g radiolabeled meal, FIG. 1, listed as α-Cyclodextrin”, the “triolein excretion (radiolabel in cecal contents, colon contents and feces)” value is “no affect”. The “ratio of excretion of tripalmitin to triolein” value (calculated from FIG. 1 values (radiolabel excreted as proportion of radiolabel consumed), FIG. 2) was “favored tripalmitin excretion”. The fat excretion entry (dietary, 5% in diet, rats) is “does indeed increase fat excretion”.

These data come from patent US8790735B2, “Method of preferentially reducing absorption of saturated fat and compositions” (General Mills, Inc., priority 2005, dated 2014).
